Data as given in the supplement of paper PMC10307832.

Legend:
Assay in all cases: relative viability (nuclei count vs DMSO), 5 days (fraction); higher = more cells survive
[1] = compound: CN(c1ncccc1CNc1nc(Nc2ccc3c(c2)CC(=O)N3)ncc1C(F)(F)F)S(C)(=O)=O + Cc1nc(Nc2ncc(C(=O)Nc3c(C)cccc3Cl)s2)cc(N2CCN(CCO)CC2)n1 [Dasatinib] (partner 0.075 µM)
In short: (§1)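 Lung cancer cell lines in 1536-well plates were dosed by pin tool the day after seeding, either with one drug alone or with a fixed anchor-drug dose plus five library-drug doses (not always all listed) in √10 steps. After 5 days, cells were fixed and their nuclei stained in one step (final 0.05% Triton X-100, 1% formaldehyde, 1 ug/ml Hoechst), then counted on 4× images. Relative viability is the nuclei count in treated wells divided by that in vehicle wells. Values are medians of duplicate plates.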

[2] = compound: CN(c1ncccc1CNc1nc(Nc2ccc3c(c2)CC(=O)N3)ncc1C(F)(F)F)S(C)(=O)=O + CC1(C)CCC(c2ccc(Cl)cc2)=C(CN2CCN(c3ccc(C(=O)NS(=O)(=O)c4ccc(N[C@H](CCN5CCOCC5)CSc5ccccc5)c(S(=O)(=O)C(F)(F)F)c4)cc3)CC2)C1 [Navitoclax] (partner 0.5 µM)
In short: as §1

[3] = compound: CN(c1ncccc1CNc1nc(Nc2ccc3c(c2)CC(=O)N3)ncc1C(F)(F)F)S(C)(=O)=O + CCNC(=O)c1noc(-c2cc(C(C)C)c(O)cc2O)c1-c1ccc(CN2CCOCC2)cc1 [Luminespib] (partner 0.01 µM)
In short: as §1

[4] = compound: CN(c1ncccc1CNc1nc(Nc2ccc3c(c2)CC(=O)N3)ncc1C(F)(F)F)S(C)(=O)=O + CC(C)C[C@H](NC(=O)[C@H](Cc1ccccc1)NC(=O)c1cnccn1)B(O)O [Bortezomib] (partner 0.002 µM)
In short: as §1

Cell Line	relative viability ([1]; first compound 0.01 µM)	relative viability ([1]; first compound 0.03162 µM)	relative viability ([1]; first compound 0.1 µM)	relative viability ([1]; first compound 0.3162 µM)	relative viability ([1]; first compound 1 µM)	relative viability ([2]; first compound 0.01 µM)	relative viability ([2]; first compound 0.03162 µM)	relative viability ([2]; first compound 0.1 µM)	relative viability ([2]; first compound 0.3162 µM)	relative viability ([2]; first compound 1 µM)	relative viability ([3]; first compound 0.01 µM)	relative viability ([3]; first compound 0.03162 µM)	relative viability ([3]; first compound 0.1 µM)	relative viability ([3]; first compound 0.3162 µM)	relative viability ([3]; first compound 1 µM)	relative viability ([4]; first compound 0.01 µM)	relative viability ([4]; first compound 0.03162 µM)	relative viability ([4]; first compound 0.1 µM)	relative viability ([4]; first compound 0.3162 µM)	relative viability ([4]; first compound 1 µM)
NCI-H1734	0.423	0.436	0.399	0.339	0.34	0.894	0.937	0.824	0.866	0.707	0.198	0.178	0.184	0.227	0.18	1.06	1.1	0.996	0.857	0.949
NCI-H1755	0.414	0.412	0.329	0.365	0.325	1.01	1.03	0.972	0.94	0.875	0.531	0.41	0.479	0.389	0.419	0.985	0.967	0.983	0.849	0.826
NCI-H1792	0.803	0.841	0.623	0.581	0.55	0.629	0.536	0.578	0.642	0.581	0.387	0.54	0.467	0.451	0.359	1.02	0.999	0.83	0.924	0.941
NCI-H1915	0.296	0.269	0.292	0.295	0.309	0.803	0.849	0.786	0.765	0.728	0.821	0.636	0.711	0.729	0.729	0.988	1.05	1.01	0.888	0.963
NCI-H1975	0.359	0.272	0.28	0.27	0.262	1.01	1.12	1.11	1.01	0.854	0.243	0.259	0.239	0.389	0.194	0.423	0.449	0.44	0.395	0.276
NCI-H1993	0.601	0.48	0.506	0.78	0.593	0.822	0.892	0.998	0.911	0.9	0.859	0.849	0.752	0.755	0.65	0.993	1.22	1.11	1.04	0.907
NCI-H2009	0.23	0.217	0.244	0.229	0.238	1.12	1.16	1.13	1.1	1.07	1.04	1.02	1.03	0.683	0.948	1.32	1.04	1.02	0.991	0.955
NCI-H2023	0.476	0.588	0.428	0.432	0.448	0.998	1.1	0.985	0.938	0.837	0.696	0.79	0.597	0.643	0.611	0.985	1.02	0.963	0.945	0.938
NCI-H2085	0.215	0.232	0.178	0.183	0.152	1.09	1.17	1.13	1.19	0.934	0.394	0.681	0.457	0.418	0.36	1.06	1.11	1.04	1	0.949
NCI-H2087	0.828	0.795	0.61	0.542	0.451	1.06	1.12	1.05	1.04	0.937	0.164	0.239	0.162	0.185	0.185	1.13	0.699	0.882	0.807	0.768
NCI-H2126	0.55	0.559	0.469	0.381	0.347	0.838	0.893	0.849	0.894	0.776	0.905	0.9	0.778	0.941	0.761	1.12	1.1	1.04	1.1	1.1
NCI-H2228	0.549	0.433	0.42	0.404	0.339	0.732	1.18	0.783	0.755	0.741	0.144	0.23	0.0915	0.182	0.103	0.817	1.24	1.05	1.06	1.02
NCI-H2347	0.283	0.313	0.331	0.297	0.283	0.879	0.69	0.699	0.701	0.592	0.643	0.557	0.243	0.592	0.389	1.08	0.93	0.927	0.801	0.45
NCI-H2405	0.229	0.197	0.184	0.22	0.218	0.802	0.993	0.66	0.705	0.679	0.791	0.723	0.622	0.464	0.52	1.05	0.972	1.03	0.865	0.813
NCI-H3122	0.802	1.02	0.787	0.746	0.764	1.07	1.01	0.941	0.977	0.936	0.0983	0.101	0.0795	0.0863	0.0795	1.04	1.03	1.01	0.968	0.891
PC-3 [JPC-3]	0.988	0.949	0.892	0.911	0.953	0.821	0.863	0.823	0.833	0.787	0.719	0.788	0.792	0.665	0.636	0.853	0.801	0.827	0.855	0.829
